pIC50: −log10 of the molar value.
Columns and labels:
Assay in all cases: Enzyme inhibiting activity of MMPs, fluorogenic peptide substrate
Type in all cases: biochemical
MMP-9 = biological target: T1, MMP-9 (Homo sapiens, UniProt P14780); conditions: substrate MOCAc-Pro-Leu-Gly-Leu-A2Pr(DNP)-Ala-Arg-NH2, fluorescent intensity
T1 construct: purchased Calbiochem (EMD/MERCK Biosciences)
Summary of the method: (§1)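 Recombinant human enzymes with the fluorogenic substrate MOCAc-Pro-Leu-Gly-Leu-A2Pr(DNP)-Ala-Arg-NH2. Fluorescence was read for enzyme+substrate±inhibitor and substrate±inhibitor blanks.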

MMP-2 = biological target: T2, MMP-2 (Homo sapiens, UniProt P08253); conditions: substrate MOCAc-Pro-Leu-Gly-Leu-A2Pr(DNP)-Ala-Arg-NH2, fluorescent intensity
T2 construct: purchased Calbiochem (EMD/MERCK Biosciences)
T2 sequence (P08253 110-660): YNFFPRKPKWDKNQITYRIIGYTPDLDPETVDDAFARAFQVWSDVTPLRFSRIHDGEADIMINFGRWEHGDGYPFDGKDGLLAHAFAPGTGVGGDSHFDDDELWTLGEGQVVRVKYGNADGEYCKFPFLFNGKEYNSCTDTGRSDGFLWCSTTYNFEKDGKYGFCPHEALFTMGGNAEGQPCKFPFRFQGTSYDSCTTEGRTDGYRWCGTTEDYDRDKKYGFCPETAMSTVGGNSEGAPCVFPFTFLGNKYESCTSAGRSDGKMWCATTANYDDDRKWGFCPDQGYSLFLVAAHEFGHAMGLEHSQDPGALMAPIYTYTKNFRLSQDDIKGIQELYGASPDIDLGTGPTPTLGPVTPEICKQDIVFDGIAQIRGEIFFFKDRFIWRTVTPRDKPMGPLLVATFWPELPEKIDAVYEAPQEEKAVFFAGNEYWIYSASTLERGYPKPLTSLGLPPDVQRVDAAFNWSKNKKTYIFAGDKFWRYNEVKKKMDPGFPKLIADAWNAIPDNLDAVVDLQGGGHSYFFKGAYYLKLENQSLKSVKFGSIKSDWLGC
Summary of the method: as §1

MMP-13 = biological target: T3, MMP-13 (Homo sapiens, UniProt P45452); conditions: APMA-activated proenzyme; substrate MOCAc-Pro-Leu-Gly-Leu-A2Pr(DNP)-Ala-Arg-NH2, fluorescent intensity; read-out: IC50 MMP-13
T3 construct: purchased Calbiochem (EMD/MERCK Biosciences)
Summary of the method: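 Pro-MMP-13 was activated with 1 mM APMA at 37° C for 2 h in 50 mM Tris-HCl pH 7.6, 0.3 M NaCl, 10 mM CaCl2, 0.005% Brij35. Activity was read by fluorescence using MOCAc-Pro-Leu-Gly-Leu-A2Pr(DNP)-Ala-Arg-NH2 substrate, with enzyme and inhibitor blank corrections. IC50 is the concentration giving 50% inhibition.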

T1 sequence (P14780 94-707): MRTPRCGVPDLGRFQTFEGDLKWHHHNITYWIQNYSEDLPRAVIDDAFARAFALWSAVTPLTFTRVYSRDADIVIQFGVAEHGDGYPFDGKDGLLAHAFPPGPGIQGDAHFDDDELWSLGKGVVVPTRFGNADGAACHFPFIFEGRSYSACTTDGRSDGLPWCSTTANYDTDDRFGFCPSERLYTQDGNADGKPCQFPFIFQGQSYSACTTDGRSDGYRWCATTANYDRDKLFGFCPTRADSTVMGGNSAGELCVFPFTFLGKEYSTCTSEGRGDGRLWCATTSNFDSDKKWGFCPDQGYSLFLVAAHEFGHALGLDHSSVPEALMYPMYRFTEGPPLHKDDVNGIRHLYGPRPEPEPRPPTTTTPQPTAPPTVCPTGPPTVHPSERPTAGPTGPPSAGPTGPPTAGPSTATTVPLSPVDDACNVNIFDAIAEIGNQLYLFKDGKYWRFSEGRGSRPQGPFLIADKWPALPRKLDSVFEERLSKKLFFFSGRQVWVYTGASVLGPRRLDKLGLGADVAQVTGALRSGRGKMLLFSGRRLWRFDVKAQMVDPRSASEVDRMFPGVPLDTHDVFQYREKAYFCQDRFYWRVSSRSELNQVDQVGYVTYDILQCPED

SMILES | pIC50 (MMP-9) | pIC50 (MMP-2) | pIC50 (MMP-13)
B.CC(C)[C@@H](NS(=O)(=O)N1CCN(c2ccc(C#Cc3ccnc(C(=O)NCc4ccc(CN(C)C)cc4)c3)cc2)CC1)C(=O)O [III-153, (R)-2-(4-{4-[2-(4-dimethylaminomethylbenzylcarbamoyl)-pyridin-4-ylethynyl]-phenyl}-piperazine-1-sulfonylamino)-3-methylbutanoic acid borane complex] | < 5.00 | 5.00 to 6.00 | 8.40
CC(C)[C@@H](NS(=O)(=O)N1CCN(c2ccc(C#Cc3ccnc(C(=O)NCc4ccc(C(C)(C)C)cc4)c3)cc2)CC1)C(=O)O [III-154, (R)-2-(4-{4-[2-(4-tert-butylbenzylcarbamoyl)-pyridin-4-ylethynyl]-phenyl}-piperazine-1-sulfonylamino)-3-methylbutanoic acid] | < 5.00 | < 5.00 | 7.68
CC(C)[C@@H](NS(=O)(=O)N1CCN(c2ccc(C#Cc3ccnc(C(=O)NCc4ccc(Cl)c(Cl)c4)c3)cc2)CC1)C(=O)O [III-156, (R)-2-(4-{4-[2-(3,4-dichlorobenzylcarbamoyl)-pyridin-4-ylethynyl]-phenyl}-piperazine-1-sulfonylamino)-3-methylbutanoic acid] | < 5.00 | 5.00 to 6.00 | 8.00
CC(C)[C@@H](NS(=O)(=O)N1CCN(c2ccc(C#Cc3ccnc(C(=O)NCc4cc(Cl)cc(Cl)c4)c3)cc2)CC1)C(=O)O [III-157, (R)-2-(4-{4-[2-(3,5-dichlorobenzylcarbamoyl)-pyridin-4-ylethynyl]-phenyl}-piperazine-1-sulfonylamino)-3-methylbutanoic acid] | < 5.00 | < 5.00 | 7.72
COc1ccc(CNC(=O)c2cc(/C=C/c3ccc(N4CCN(S(=O)(=O)N[C@@H](C(=O)O)C(C)C)CC4)cc3)ccn2)cc1 [III-161, (R)-2-[4-(4-{(E)-2-[2-(4-methoxybenzylcarbamoyl)-pyridin-4-yl]-vinyl}-phenyl)-piperazine-1-sulfonylamino]-3-methylbutanoic acid] | < 5.00 | 5.00 to 6.00 | 8.30
COc1ccc(Cn2ccc3ccc(C#Cc4ccc(N5CCN(S(=O)(=O)N[C@@H](C(=O)O)C(C)C)CC5)cc4)cc3c2=O)cc1 [III-167, (R)-2-(4-{4-[2-(4-methoxybenzyl)-1-oxo-1,2-dihydroisoquinolin-7-ylethynyl]-phenyl}-piperazine-1-sulfonylamino)-3-methylbutanoic acid] | < 5.00 | < 5.00 | 7.85
CC(C)[C@@H](NS(=O)(=O)N1CCN(c2ccc(C#Cc3ccc4ccn(Cc5ccncc5)c(=O)c4c3)cc2)CC1)C(=O)O [III-169, (R)-3-methyl-2-{4-[4-(1-oxo-2-pyridin-4-ylmethyl-1,2-dihydroisoquinolin-7-ylethynyl)-phenyl]-piperazine-1-sulfonylamino}-butanoic acid] | < 5.00 | 5.00 to 6.00 | 8.52
CC(C)[C@@H](NS(=O)(=O)N1CCN(c2ccc(C#Cc3ccc4ccn(Cc5ccc(S(C)(=O)=O)cc5)c(=O)c4c3)cc2)CC1)C(=O)O [III-170, (R)-2-(4-{4-[2-(4-methanesulfonylbenzyl)-1-oxo-1,2-dihydroisoquinolin-7-ylethynyl)-phenyl]-piperazine-1-sulfonylamino}-3-methylbutanoic acid] | < 5.00 | 5.00 to 6.00 | 8.40
CC(C)[C@@H](NS(=O)(=O)N1CCN(c2ccc(C#Cc3ccnc(C(=O)NCc4ccc(N5CCCCC5)cc4)c3)cc2)CC1)C(=O)O [III-171, (R)-3-methyl-2-(4-{4-[2-(4-piperidin-1-ylbenzylcarbamoyl)-pyridin-4-ylethynyl]-phenyl}-piperazine-1-sulfonylamino)-butanoic acid] | < 5.00 | 5.00 to 6.00 | 8.15
COc1ccc(CNC(=O)c2cc(C#Cc3ccc(N4CCN(S(=O)(=O)N[C@@H](C(=O)O)C(C)C)CC4)cc3)cn(C)c2=O)cc1 [III-172, (R)-2-(4-{4-[5-(4-methoxybenzylcarbamoyl)-1-methyl-6-oxo-1,6-dihydropyridin-3-yllethynyl]-phenyl}-piperazine-1-sulfonylamino)-3-methylbutanoic acid] | < 5.00 | < 5.00 | 8.00
CC(C)[C@@H](NS(=O)(=O)N1CCN(c2ccc(C#Cc3ccnc(C(=O)NCc4ccccc4)c3)cc2)CC1)C(=O)O [III-177, (R)-2-{4-[4-(2-benzylcarbamoylpyridin-4-ylethynyl)-phenyl]-piperazine-1-sulfonylamino}-3-methylbutanoic acid] | < 5.00 | 5.00 to 6.00 | 8.05
CC(C)[C@@H](NS(=O)(=O)N1CCN(c2ccc(C#Cc3ccnc(C(=O)NCc4ccc(F)c(Cl)c4)c3)cc2)CC1)C(=O)O [III-179, (R)-2-(4-{4-[2-(3-chloro4-fluorobenzylcarbamoyl)-pyridin-4-ylethynyl]-phenyl}-piperazine-1-sulfonylamino)-3-methylbutanoic acid] | < 5.00 | < 5.00 | 7.92
CC(C)[C@@H](NS(=O)(=O)N1CCN(c2ccc(C#Cc3ccnc(C(=O)NCc4cccc(F)c4)c3)cc2)CC1)C(=O)O [III-181, (R)-2-(4-{4-[2-(3-fluorobenzylcarbamoyl)-pyridin-4-ylethynyl]-phenyl}-piperazine-1-sulfonylamino)-3-methylbutanoic acid] | < 5.00 | 5.00 to 6.00 | 8.22
Cc1cc(CNC(=O)c2cc(C#Cc3ccc(N4CCN(S(=O)(=O)N[C@@H](C(=O)O)C(C)C)CC4)cc3)ccn2)ccc1F [III-184, (R)-2-(4-{4-[2-(4-fluoro-3-methylbenzylcarbamoyl)-pyridin-4-ylethynyl]-phenyl}-piperazine-1-sulfonylamino)-3-methylbutanoic acid] | < 5.00 | 5.00 to 6.00 | 7.85
Cc1cccc(CNC(=O)c2cc(C#Cc3ccc(N4CCN(S(=O)(=O)N[C@@H](C(=O)O)C(C)C)CC4)cc3)ccn2)c1 [III-186, (R)-3-methyl-2-(4-{4-[2-(3-methylbenzylcarbamoyl)-pyridin-4-ylethynyl]-phenyl}-piperazine-1-sulfonylamino)-butanoic acid] | < 5.00 | 5.00 to 6.00 | 7.92
CC(C)[C@@H](NS(=O)(=O)N1CCN(c2ccc(C#Cc3ccnc(C(=O)NCc4cccs4)c3)cc2)CC1)C(=O)O [III-187, (R)-3-methyl-2-[4-(4-{2-[(thiophen-2-ylmethyl)-carbamoyl]-pyridin-4-ylethynyl}-phenyl)-piperazine-1-sulfonylamino]-butanoic acid] | < 5.00 | 5.00 to 6.00 | 8.15
CC(C)[C@@H](NS(=O)(=O)N1CCN(c2ccc(C#Cc3ccnc(C(=O)NCc4ccc(F)c(F)c4)c3)cc2)CC1)C(=O)O [III-189, (R)-2-(4-{4-[2-(3.4-difluorobenzylcarbamoyl)-pyridin-4-ylethynyl]-phenyl}-piperazine-1-sulfonylamino)-3-methylbutanoic acid] | < 5.00 | 5.00 to 6.00 | 8.30
CC(C)[C@@H](NS(=O)(=O)N1CCN(c2ccc(C#Cc3ccnc(C(=O)NCc4cc(F)cc(F)c4)c3)cc2)CC1)C(=O)O [III-192, (R)-2-(4-{4-[2-(3,5-difluorobenzylcarbamoyl)-pyridin-4-ylethynyl]-phenyl}-piperazine-1-sulfonylamino)-3-methylbutanoic acid] | < 5.00 | 5.00 to 6.00 | 8.10
Cc1ccc(CNC(=O)c2cc(C#Cc3ccc(N4CCN(S(=O)(=O)N[C@@H](C(=O)O)C(C)C)CC4)cc3)ccn2)cc1 [III-193, (R)-3-methyl-2-(4-{4-[2-(4-methylbenzylcarbamoyl)-pyridin-4-ylethynyl]-phenyl}-piperazine-1-sulfonylamino)-butanoic acid] | < 5.00 | 5.00 to 6.00 | 8.30
CC(C)[C@@H](NS(=O)(=O)N1CCN(c2ccc(C#Cc3ccnc(C(=O)NCc4ccc(C(F)(F)F)cc4)c3)cc2)CC1)C(=O)O [III-194, (R)-3-methyl-2-(4-{4-[2-(4-trifluoromethylbenzylcarbamoyl)-pyridin-4-ylethynyl]-phenyl}-piperazine-1-sulfonylamino)-butanoic acid] | < 5.00 | < 5.00 | 7.59
CC(C)c1ccc(CNC(=O)c2cc(C#Cc3ccc(N4CCN(S(=O)(=O)N[C@@H](C(=O)O)C(C)C)CC4)cc3)ccn2)cc1 [III-195, (R)-2-(4-{4-[2-(4-isopropylbenzylcarbamoyl)-pyridin-4-ylethynyl]-phenyl}-piperazine-1-sulfonylamino)-3-methylbutanoic acid] | < 5.00 | < 5.00 | 8.15

Reference: patent US20100099676A1 (SHIONOGI & CO., LTD., priority 2006, published 2010)
